Publication PMC5108032, “Discovery of a Quinoline-4-carboxamide Derivative with a Novel Mechanism of Action, Multistage Antimalarial Activity, and Potent in Vivo Efficacy” (Journal of Medicinal Chemistry, 2016)
In brackets after ≈: the same amount, converted by molar mass.

What was measured:
[1] = Experimental pKa by potentiometric titration; format: physicochemical; settings: value in parentheses, read-out: R^3 group pKa, experimental
Description: Table 4 SAR Study of the R^3 Substituent: Aromatic Groups | column: R^3 group pKa^a

[2] = Plasma protein binding (equilibrium dialysis); format: in vitro ADME; settings: female, NMRI; mouse plasma protein binding; read-out: PPB (converted)
Procedure: by the addition of excess NADPH (8 mg/mL 50 mM potassium phosphate buffer, pH 7.4).
Immediately, at time zero, then at 3, 6, 9, 15 and 30 min an aliquot (50 μL) of the incubation mixture was removed and mixed with acetonitrile (100 μL) to stop the reaction. Internal standard was added to all samples, the samples centrifuged to sediment precipitated protein and the plates then sealed prior to UPLC-MS/MS analysis using a Quattro Premier XE (Waters Corporation, USA).
XLfit (IDBS, UK) was used to calculate the exponential decay and consequently the rate constant (k) from the ratio of peak area of test compound to internal standard at each timepoint. The rate of intrinsic clearance (CLi) of each test compound was then calculated using the following calculation:
CLi (mL/min/g liver) = k x V x Microsomal protein yield
Where V (mL/mg protein) is the incubation volume/mg protein added and microsomal protein yield is taken as 52.5 mg protein per g liver. Verapamil (0.5 µM) was used as a positive control to confirm acceptable assay performance. Experiments were performed using a single time-course experiment.
Plasma Protein Binding (PPB) experiments
This was based on a previously described method, with the exception that NMRI mouse plasma was used here.8 In brief, a 96 well equilibrium dialysis apparatus was used to determine the free fraction in plasma for each compound (HT Dialysis LLC, Gales Ferry, CT). Membranes (12-14 kDA cut-off) were conditioned in deionised water for 60 min, followed by conditioning in 80:20 deionised water:ethanol for 20 min, and then rinsed in isotonic buffer before use. Female CD1 mouse plasma was removed from the freezer and allowed to thaw on the day of experiment. Thawed plasma was then centrifuged (Allegra X12-R, Beckman Coulter, USA), spiked with test compound (final concentration 10 μg/mL), and 150 μL aliquots (n=6 replicate determinations) loaded into the 96-well equilibrium dialysis plate. Dialysis against isotonic buffer (150 µL) was carried out for 5 h in a temperature controlled incubator at ~37 °C (Barworld scientific Ltd, UK) using an orbital microplate shaker at 100 revolutions/minute (Barworld Scientific Ltd, UK). At the end of the incubation period, 50 μL aliquots of plasma or buffer were transferred to micronic tubes (Micronic B.V., the Netherlands) and the composition in each tube balanced with control fluid (50 μL), such that the volume of buffer to plasma is the same. Sample extraction was performed by the addition of 200 µL of acetonitrile containing an appropriate internal standard. Samples were allowed to mix for 1 min and then centrifuged at 3000 rpm in 96-well blocks for 15 min (Allegra X12-R, Beckman Coulter, USA) after which 150 μL of supernatant was removed to 50 μL of water. All samples were analysed by UPLC-MS/MS on a Quattro Premier XE Mass Spectrometer (Waters Corporation, USA). The unbound fraction was determined as the ratio of the peak area in buffer to that in plasma. Experiments […]
Parallel Artificial Membrane Permeability Assay (PAMPA)
PAMPA was performed using a 96-well pre-coated BD Gentest™ PAMPA plate (BD Biosciences, U.K.). Each well was divided into two chambers; donor and acceptor, separated by a lipid-oil-lipid tri-layer constructed in a porous filter. The effective permeability, Pe, of the compound was measured at pH 7.4. Stock solutions (5 mM) of the compound were prepared in DMSO. The compound was then further diluted to 10 µM in phosphate buffered saline at pH 7.4. […]

Pf (3D7) = assay: Ligand efficiency metrics (LE, LLE, LELP), selectivity and fold changes; design: species or system Plasmodium falciparum
[3] = Kinetic aqueous solubility (laser nephelometry); format: physicochemical; settings: MilliQ water with 1.0% DMSO, aqueous with cosolvent or surfactant or cyclodextrin, kinetic from dmso stock
Description: inhibition at top, C= EC50, D= slope, x= inhibitor concentration and y= % inhibition. […]
reach 100% of inhibition, B was fixed to 100 only when at least 50% of inhibition was reached.
Plasmodium falciparum late stage (IV-V) gametocyte high content imaging assay Plasmodium falciparum NF54-pfs16-LUC-GFP stage IV-V Gametocytes were produced as described previously.5 Compounds were solubilized in DMSO and serially diluted in three concentrations per log standard curves in DM SO. One µl of compound was subsequently diluted in 25µl of water (4% DMSO) and 5µl transferred into the base of 384 well PerkinElmer CellCarrier plates. […]
Post incubation, 5µl of MitoTracker® Red CM -H2Xros (MTR) solution (0.66ug/ml) was added to all wells and the plates incubated for a further 16hours. The assay plates were then imaged and the number of viable gametocytes determined for test compounds plus 0.4%DMSO and 5µM Puromycin. […]
Assay was performed as previously reported.6 Briefly blood containing P. berghei CTRPp-GFP gametocytes was rapidly harvested from infected mice and introduced to test compounds pre-diluted in ookinete medium (to induce gamete formation and support ookinete development) in 96-well plates. […] All assays were performed in triplicate independent experiments and EC50 values calculated in Graphpad Prism. […]

[4] = Rat hepatic portal vein study; format: in vivo

Compound	pKa [1]	fraction unbound at 5 h, 10 μg/mL [2]	LLE (ligand-lipophilicity efficiency) (Pf (3D7))	also measured
O=C(NCCN1CCCC1)c1cc(-c2ccc(CN3CCOCC3)cc2Cl)nc2ccc(F)cc12 [Compound 42, 2-(2-Chloro-4-(morpholinomethyl)phenyl)-6-fluoro-N-(2-(pyrrolidin-1-yl)ethyl)quinoline-4-carboxamide]	6.3	0.44		
O=C(NCCN1CCCC1)c1cc(NCCCN2CCOCC2)nc2ccc(F)cc12 [Compound 25, 6-Fluoro-2-((3-morpholinopropyl)amino)-N-(2-(pyrrolidin-1-yl)ethyl)quinoline-4-carboxamide]		0.41	5.4	
O=C(NCCN1CCCC1)c1cc(-c2ccc(CN3CCOCC3)cc2F)nc2ccc(F)cc12 [Compound 41]	6.3			
O=C(NCCN1CCCC1)c1cc(-c2ccc(S(=O)(=O)N3CCOCC3)cc2)nc2ccc(F)cc12 [Compound 38, 6-Fluoro-2-(4-(morpholinosulfonyl)phenyl)-N-(2-(pyrrolidin-1-yl)ethyl)quinoline-4-carboxamide]		0.25		
O=C(NCCN1CCCC1)c1cc(NCCCCN2CCOCC2)nc2ccc(Cl)cc12 [Compound 27, 6-Chloro-2-((4-morpholinobutyl)amino)-N-(2-(pyrrolidin-1-yl)ethyl)quinoline-4-carboxamide]		0.51	6.2	solubility kinetic [3]: 220 µM (≈ 101 µg/mL); improvement / increase in potency (Pf (3D7); Pf (3D7), relative to the comparator compound of the sentence): 17 fold
O=C(NCCN1CCCC1)c1cc(NCCC2CCOCC2)nc2ccc(Cl)cc12 [Compound 30, 6-Chloro-N-(2-(pyrrolidin-1-yl)ethyl)-2-((2-(tetrahydro-2H-pyran-4-yl)ethyl)amino)quinoline-4-carboxamide]		0.23		hepatic extraction [4]: 76%
